# Measurements from patent publication US20100160279A1, “Azetidine Derivatives as Muscarinic Receptor Antagonists” (Pfizer Inc, priority 2006, published 2010).
# Molecular target: T1, human muscarinic M3 receptor (Homo sapiens, UniProt P20309)
# T1 construct: expressed in transfected cells
# Assay: hM3 β-Lac potency assay (cell based β-lactamase, inhibition of carbamyl choline induced signal)
# Details: CHO cells expressing human M3 receptor with NFAT-β-lactamase reporter; 80 nM carbamyl choline, 4 h; IC50 converted to Ki by Cheng-Prusoff
# Procedure: M3 potency was determined in CHO-K1 cells transfected with the NFAT-Betalactamase gene. CHO (Chinese Hamster Ovary) cells recombinantly expressing the human muscarinic M3 receptor were transfected with the NFAT_β-Lac_Zeo plasmid.
# The cells were re-suspended at 2×10^5 cells/ml in growth medium (composition as described above). […] Muscarinic M3 receptor signalling was stimulated using 80 nM carbamyl choline (Aldrich N240-9) incubated with the cells for 4 h at 37° C./5% CO2 and monitored at the end of the incubation period using a Tecan SpectraFluor+ plate reader (λ-excitation 405 nm, emission 450 nm and 503 nm). […] Inhibition curves were plotted and IC50 values generated using a 4-parameter sigmoid fit and converted to Ki values using the Cheng-Prusoff correction and the KD value for carbamyl choline in the assay.
# T1 sequence (P20309 whole entry): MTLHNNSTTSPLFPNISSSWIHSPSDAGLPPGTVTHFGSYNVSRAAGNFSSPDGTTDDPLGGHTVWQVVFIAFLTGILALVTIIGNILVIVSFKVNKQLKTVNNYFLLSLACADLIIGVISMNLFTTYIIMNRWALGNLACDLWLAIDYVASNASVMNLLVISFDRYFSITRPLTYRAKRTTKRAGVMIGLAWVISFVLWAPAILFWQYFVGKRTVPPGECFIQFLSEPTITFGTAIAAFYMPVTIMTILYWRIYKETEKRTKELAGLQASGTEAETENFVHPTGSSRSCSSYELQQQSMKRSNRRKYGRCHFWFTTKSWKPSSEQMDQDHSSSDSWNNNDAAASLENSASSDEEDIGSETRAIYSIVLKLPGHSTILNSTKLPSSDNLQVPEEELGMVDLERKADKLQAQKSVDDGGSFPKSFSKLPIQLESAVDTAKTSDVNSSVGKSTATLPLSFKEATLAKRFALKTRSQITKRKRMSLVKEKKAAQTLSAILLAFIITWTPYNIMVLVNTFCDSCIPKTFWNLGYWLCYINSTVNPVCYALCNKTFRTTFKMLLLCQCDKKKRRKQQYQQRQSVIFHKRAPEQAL
row,SMILES,Ki [nM]
1,"CC(C)(CCC(C#N)(c1ccccc1)c1ccccc1)N1CC(NCc2cc(Cl)ccc2O)C1 [Example 8, 5-[3-(5-Chloro-2-hydroxy-benzylamino)-azetidin-1-yl]-5-methyl-2,2-diphenyl-hexanenitrile]",> 315
2,"CC(C)(CCC(C#N)(c1ccccc1)c1ccccc1)N1CC(NCc2cc(F)ccc2O)C1 [Example 7, 5-[3-(5-Fluoro-2-hydroxy-benzylamino)-azetidin-1-yl]-5-methyl-2,2-diphenyl-hexanenitrile]",4.37
3,"CC(C)(CCC(C(N)=O)(c1ccccc1)c1ccccc1)N1CC(NCc2cc(Cl)ccc2O)C1 [Example 4, 5-[3-(5-Chloro-2-hydroxy-benzylamino)-azetidin-1-yl]-5-methyl-2,2-diphenyl-hexanoic acid amide]",56.8
4,"CC(C)(CCC(C(N)=O)(c1ccccc1)c1ccccc1)N1CC(Sc2cccc(O)c2)C1 [Example 15, 5-[3-(3-Hydroxy-phenylsulfanyl)-azetidin-1-yl]-5-methyl-2,2-diphenyl-hexanoic acid amide]",0.368
5,"CC(C)(CCC(C(N)=O)(c1ccccc1)c1ccccc1)N1CC(NCc2cccc(O)c2Cl)C1 [Example 3, 5-[3-(2-Chloro-3-hydroxy-benzylamino)-azetidin-1-yl]-5-methyl-2,2-diphenyl-hexanoic acid amide]",2.08
6,"CC(C)(CCC(C(N)=O)(c1ccccc1)c1ccccc1)N1CC(NCc2cc(F)ccc2O)C1 [Example 5, 5-[3-(5-Fluoro-2-hydroxy-benzylamino)-azetidin-1-yl]-5-methyl-2,2-diphenyl-hexanoic acid amide]",2.53

# Further lines, results first:
row,Ki [nM],SMILES
1,0.594,"CC(C)(CCC(C(N)=O)(c1ccccc1)c1ccccc1)N1CC(NCc2ccccc2O)C1 [Example 9, 5-[3-(2-Hydroxy-benzylamino)-azetidin-1-yl]-5-methyl-2,2-diphenyl-hexanoic acid amide]"
2,0.556,"CC(C)(CCC(C(N)=O)(c1ccccc1)c1ccccc1)N1CC(NCc2ccccc2)C1 [Example 2, 5-(3-Benzylamino-azetidin-1-yl)-5-methyl-2,2-diphenyl-hexanoic acid amide]"
3,0.727,"CC(C)(CCC(C(N)=O)(c1ccccc1)c1ccccc1)N1CC(NCc2cccc(O)c2)C1 [Example 6, 5-[3-(3-Hydroxy-benzylamino)-azetidin-1-yl]-5-methyl-2,2-diphenyl-hexanoic acid amide]"
4,0.905,"CC(C)(CCC(C(N)=O)(c1ccccc1)c1ccccc1)N1CC(NCc2ccc(Cl)c(O)c2)C1 [Example 12, 5-[3-(4-Chloro-3-hydroxy-benzylamino)-azetidin-1-yl]-5-methyl-22-diphenyl-hexanoic acid amide]"
5,0.396,"CC(C)(CCC(C(N)=O)(c1ccccc1)c1ccccc1)N1CC(NCc2ccc(F)c(O)c2)C1 [Example 10, 5-[3-(4-Fluoro-3-hydroxy-benzylamino)-azetidin-1-yl]-5-methyl-2,2-diphenyl-hexanoic acid amide]"
